{"source": "patent US20030165854A1", "about": "“Marker genes responding to treatment with toxins” (priority 2000, published 2003)", "key": {"[1]": {"tested_on": "rat liver cDNAs SEQ ID NOs: 62-202", "experiment": "Abundance of cDNA clones in toxin-treated rat liver cDNA libraries (transcript imaging), Sprague-Dawley", "format": "in vivo", "conditions": "Strain SD", "procedure": "Columns 1 and 2 show the SEQ ID NO and Clone ID of the rat cDNA clone, respectively.\nAbundance of a clone was determined by counting the number of clones present in a master cluster.\nAbundance of a particular cDNA in the library profile was determined by summing the total number of copies of the clones present in the master cluster in that library."}, "P450 4A": {"tested_on": "P450 4A", "conditions": "clofibrate-treated rat liver, vs untreated liver"}, "P450 LA-omega 4A3": {"tested_on": "P450 LA-omega 4A3", "experiment": "Gene expression (fold change) of known genes in toxin-treated rat liver, cDNA library transcript imaging", "conditions": "clofibrate-treated rat liver, vs untreated liver"}}, "note": "Where two headings read alike, the source gives them in different places.", "data": [{"smiles": "CCOC(=O)C(C)(C)Oc1ccc(Cl)cc1", "note": "[clofibrate]", "values": [{"measurement": "Maximum Abundance, SEQ ID NO 193, Clone ID 700858043", "setting": "[1]; Sex F", "result": 1}, {"measurement": "Maximum Abundance, SEQ ID NO 109, Clone ID 700250903", "setting": "[1]; Sex M", "result": 11}, {"measurement": "Maximum Abundance, SEQ ID NO 126, Clone ID 700122019", "setting": "[1]; Sex M", "result": 4}, {"measurement": "Maximum Abundance, SEQ ID NO 127, Clone ID 700276321", "setting": "[1]; Sex M", "result": 4}, {"measurement": "Maximum Abundance, SEQ ID NO 128, Clone ID 700323126", "setting": "[1]; Sex M", "result": 3}, {"measurement": "Maximum Abundance, SEQ ID NO 129, Clone ID 700324604", "setting": "[1]; Sex M", "result": 3}, {"measurement": "Maximum Abundance, SEQ ID NO 130, Clone ID 700363120", "setting": "[1]; Sex M", "result": 3}, {"measurement": "Maximum Abundance, SEQ ID NO 131, Clone ID 700364810", "setting": "[1]; Sex M", "result": 3}, {"measurement": "Maximum Abundance, SEQ ID NO 132, Clone ID 700510701", "setting": "[1]; Sex M", "result": 4}, {"measurement": "Maximum Abundance, SEQ ID NO 133, Clone ID 700810877", "setting": "[1]; Sex M", "result": 5}, {"measurement": "Maximum Abundance, SEQ ID NO 134, Clone ID 700928985", "setting": "[1]; Sex M", "result": 6}, {"measurement": "Maximum Abundance, SEQ ID NO 135, Clone ID 700931410", "setting": "[1]; Sex M", "result": 4}, {"measurement": "Maximum Abundance, SEQ ID NO 136, Clone ID 701093657", "setting": "[1]; Sex M", "result": 4}, {"measurement": "Maximum Abundance, SEQ ID NO 137, Clone ID 701259518", "setting": "[1]; Sex M", "result": 3}, {"measurement": "Maximum Abundance, SEQ ID NO 138, Clone ID 701264516", "setting": "[1]; Sex M", "result": 4}, {"measurement": "Maximum Abundance, SEQ ID NO 139, Clone ID 701341715", "setting": "[1]; Sex M", "result": 4}, {"measurement": "Maximum Abundance, SEQ ID NO 140, Clone ID 701434939", "setting": "[1]; Sex M", "result": 4}, {"measurement": "Maximum Abundance, SEQ ID NO 141, Clone ID 701460429", "setting": "[1]; Sex M", "result": 3}, {"measurement": "Maximum Abundance, SEQ ID NO 142, Clone ID 701463285", "setting": "[1]; Sex M", "result": 4}, {"measurement": "Maximum Abundance, SEQ ID NO 143, Clone ID 701605992", "setting": "[1]; Sex M", "result": 4}, {"measurement": "Maximum Abundance, SEQ ID NO 144, Clone ID 701737185", "setting": "[1]; Sex M", "result": 3}, {"measurement": "Maximum Abundance, SEQ ID NO 145, Clone ID 701737221", "setting": "[1]; Sex M", "result": 4}, {"measurement": "Maximum Abundance, SEQ ID NO 146, Clone ID 701920170", "setting": "[1]; Sex M", "result": 3}, {"measurement": "Maximum Abundance, SEQ ID NO 147, Clone ID 701922204", "setting": "[1]; Sex M", "result": 3}, {"measurement": "Maximum Abundance, SEQ ID NO 148, Clone ID 701922375", "setting": "[1]; Sex M", "result": 4}, {"measurement": "Maximum Abundance, SEQ ID NO 149, Clone ID 701922439", "setting": "[1]; Sex M", "result": 4}, {"measurement": "Maximum Abundance, SEQ ID NO 150, Clone ID 701922513", "setting": "[1]; Sex M", "result": 4}, {"measurement": "Maximum Abundance, SEQ ID NO 151, Clone ID 701922576", "setting": "[1]; Sex M", "result": 4}, {"measurement": "Maximum Abundance, SEQ ID NO 152, Clone ID 701922583", "setting": "[1]; Sex M", "result": 3}, {"measurement": "Maximum Abundance, SEQ ID NO 153, Clone ID 701922711", "setting": "[1]; Sex M", "result": 3}, {"measurement": "Maximum Abundance, SEQ ID NO 154, Clone ID 701922744", "setting": "[1]; Sex M", "result": 4}, {"measurement": "Maximum Abundance, SEQ ID NO 155, Clone ID 701922971", "setting": "[1]; Sex M", "result": 3}, {"measurement": "Maximum Abundance, SEQ ID NO 156, Clone ID 701923019", "setting": "[1]; Sex M", "result": 5}, {"measurement": "Maximum Abundance, SEQ ID NO 157, Clone ID 701923022", "setting": "[1]; Sex M", "result": 3}, {"measurement": "Maximum Abundance, SEQ ID NO 158, Clone ID 701923218", "setting": "[1]; Sex M", "result": 4}, {"measurement": "Maximum Abundance, SEQ ID NO 159, Clone ID 701923240", "setting": "[1]; Sex M", "result": 4}, {"measurement": "Maximum Abundance, SEQ ID NO 160, Clone ID 701923241", "setting": "[1]; Sex M", "result": 3}, {"measurement": "Maximum Abundance, SEQ ID NO 161, Clone ID 701923330", "setting": "[1]; Sex M", "result": 3}, {"measurement": "Maximum Abundance, SEQ ID NO 162, Clone ID 701925484", "setting": "[1]; Sex M", "result": 4}, {"measurement": "Maximum Abundance, SEQ ID NO 194, Clone ID 700060595", "setting": "[1]; Sex M", "result": 3}, {"measurement": "Maximum Abundance, SEQ ID NO 195, Clone ID 700061212", "setting": "[1]; Sex M", "result": 3}, {"measurement": "Maximum Abundance, SEQ ID NO 196, Clone ID 700062747", "setting": "[1]; Sex M", "result": 2}, {"measurement": "Maximum Abundance, SEQ ID NO 197, Clone ID 700124248", "setting": "[1]; Sex M", "result": 3}, {"measurement": "Maximum Abundance, SEQ ID NO 198, Clone ID 700252787", "setting": "[1]; Sex M", "result": 3}, {"measurement": "Maximum Abundance, SEQ ID NO 199, Clone ID 700272719", "setting": "[1]; Sex M", "result": 3}, {"measurement": "Maximum Abundance, SEQ ID NO 200, Clone ID 700282789", "setting": "[1]; Sex M", "result": 3}, {"measurement": "Gene expression (fold change) P450 4A", "setting": "P450 4A; 12 hours", "result": 7.0, "unit": "fold change"}, {"measurement": "Gene expression (fold change) P450 4A", "setting": "P450 4A; 24 hours", "result": 16.6, "unit": "fold change"}, {"measurement": "Gene expression (fold change) P450 4A", "setting": "P450 4A; 3 days", "result": 1.4, "unit": "fold change"}, {"measurement": "Gene expression (fold change) P450 4A", "setting": "P450 4A; 7 days", "result": 0.5, "unit": "fold change"}, {"measurement": "Gene expression (fold change) P450 4A", "setting": "P450 4A; 28 days", "result": 1.3, "unit": "fold change"}, {"measurement": "Gene expression (fold change) P450 LA-omega 4A3", "setting": "P450 LA-omega 4A3; 12 hours", "result": 14.8, "unit": "fold change"}, {"measurement": "Gene expression (fold change) P450 LA-omega 4A3", "setting": "P450 LA-omega 4A3; 24 hours", "result": 26.6, "unit": "fold change"}, {"measurement": "Gene expression (fold change) P450 LA-omega 4A3", "setting": "P450 LA-omega 4A3; 3 days", "result": 1.1, "unit": "fold change"}, {"measurement": "Gene expression (fold change) P450 LA-omega 4A3", "setting": "P450 LA-omega 4A3; 7 days", "result": 0.5, "unit": "fold change"}, {"measurement": "Gene expression (fold change) P450 LA-omega 4A3", "setting": "P450 LA-omega 4A3; 28 days", "result": 0.47, "unit": "fold change"}]}]}
